In general, IC50 refers to the concentration that gives 50% inhibition.

This assay concerns the target T1, Dimer of Gag-Pol polyprotein [489-587] (Human immunodeficiency virus 1, UniProt P12497).
T1 construct: 489-587
Kind of assay: Protease Inhibition Assay. Conditions: pH 6; 37 °C. Here is the method:
IC50 values were obtained by assaying the enzyme against the synthetic substrate peptide […], which was tritiated at the proline residue, and then was coupled via its N-terminal lysine to an Affi-gel bead mixture. The assay was performed in 96-well microtiter filtration plates. The plates containing HIV protease and radiolabeled substrate beads were incubated with or without inhibitor. […] IC50 determinations were performed in duplicate at each concentration with mean values used for data analysis.

Turning to `CC1(C)S[C@H]([C@H](NC(=O)Cc2ccccc2)C(N)=O)N[C@H]1C(=O)NCCNC(=O)[C@@H]1N[C@@H]([C@H](NC(=O)Cc2ccccc2)C(N)=O)SC1(C)C`, half-maximal inhibition (IC50) was put at 3 nM.
Under `CCNC(=O)[C@@H](NC(=O)Cc1ccccc1)[C@@H]1N[C@@H](C(=O)NCCNC(=O)[C@@H]2N[C@@H]([C@H](NC(=O)Cc3ccccc3)C(=O)NCC)SC2(C)C)C(C)(C)S1` stands 4.8 nM; under `COC(=O)[C@@H](NC(=O)Cc1ccccc1)[C@@H]1N[C@@H](C(=O)NCCNC(=O)[C@@H]2N[C@@H]([C@H](NC(=O)Cc3ccccc3)C(=O)OC)SC2(C)C)C(C)(C)S1` [[2R-[2a(R*),4B ] ]-4,4-[1,2-Ethanediylbis[aminocarbonyl] ]-bis[5,5-dimethyl-a-[ (phenylacetyl)amino]-2-thiazolidineacetic acid, methyl ester]], 60 nM.

For the origin of these results see BindingDB's records for doi:10.1021/jm00073a011 (Glaxo Group Research, 1993).
